Square brackets hold non-standard residues; d marks the D form. Peptide text beside a SMILES is read from it. dPhe(4-Cl) = N[C@H](Cc1ccc(Cl)cc1)C(=O)O; d2Nal = N[C@H](Cc1ccc2ccccc2c1)C(=O)O; dCit = NC(=O)NCCC[C@@H](N)C(=O)O; d3Pal = N[C@H](Cc1cccnc1)C(=O)O
Assays:
hormone concentration = conditions: volunteer tests; cited from earlier work
testosterone levels = experiment: Testosterone levels in prostate cancer patients under initial/maintenance dose regimen; format: in vivo, human; conditions: for testosterone levels during first period: prostate cancer patients
Experimental: (§1) 130 mg ozarelix is given as a single monthly initial dose per i.m. injection every 4 weeks to patients suffering from prostate cancer for a first period of 3 months. […] Subsequently, patients are treated with single monthly maintenance doses of 30 mg ozarelix given per i.m. injection over a period of 6 months. […] The treatment scheme is then repeated continuously (chronic treatment).
(§2) 00 mg ozarelix is given as a single initial dose per i.m. injection once every 3 months to patients suffering from prostate cancer for a first period of 3 to 6 months. […] Subsequently, patients are treated with single monthly maintenance doses of 40 mg ozarelix given per i.m. injection over a period of 6 months. […] The treatment scheme is then repeated continuously (chronic treatment).
as §1, with “3.75” for “130”, “leuprorelin (leuprolide) are” for “ozarelix is”, “6” for “3”, “20” for “30”, “9” for “6”
as §2, with “11.25” for “00”, “leuprorelin (leuprolide) are” for “ozarelix is”, “three” for “3”, “3” for “3 to 6”, “50” for “40”, “3” for “6”

PSA levels = PSA levels in prostate cancer patients under initial/maintenance dose regimen; format: in vivo, human; conditions: for PSA levels decrease during first period: prostate cancer patients
Experimental: as §1, §2
as §1, with “3.75” for “130”, “leuprorelin (leuprolide) are” for “ozarelix is”, “6” for “3”, “20” for “30”, “9” for “6”
as §2, with “11.25” for “00”, “leuprorelin (leuprolide) are” for “ozarelix is”, “three” for “3”, “3” for “3 to 6”, “50” for “40”, “3” for “6”

[1] = Example 3: 3.75 mg single monthly initial dose i.m. every 4 weeks, first period of 6 months
[2] = Example 4: 11.25 mg single initial dose i.m. once every three months, first period of 3 months
[3] = Example 1: 130 mg single monthly initial dose i.m. every 4 weeks, first period of 3 months
[4] = Example 1: single monthly maintenance doses of 30 mg i.m. over 6 months, after 130 mg ozarelix initial doses
[5] = Example 2: 00 mg single initial dose i.m. once every 3 months, first period of 3 to 6 months
[6] = Example 2: single monthly maintenance doses of 40 mg i.m. over 6 months, after ozarelix initial doses
[7] = Example 3: single monthly maintenance doses of 20 mg i.m. over 9 months, after 3.75 mg leuprorelin initial doses
[8] = Example 4: single monthly maintenance doses of 50 mg i.m. over 3 months, after 11.25 mg leuprorelin initial dose

Compound: CC(=O)N[C@H](Cc1ccc2ccccc2c1)C(=O)N[C@H](Cc1ccc(Cl)cc1)C(=O)N[C@H](Cc1cccnc1)C(=O)N[C@@H](CO)C(=O)N[C@@H](Cc1ccc(O)cc1)C(=O)N[C@H](CCCNC(N)=O)C(=O)N[C@@H](CC(C)C)C(=O)N[C@@H](CCCNC(=N)N)C(=O)N1CCC[C@H]1C(=O)N[C@H](C)C(N)=O [cetrorelix] (Ac-[d2Nal][dPhe(4-Cl)][d3Pal]SY[dCit]LRP[dA]-NH2)
- dose necessary for complete suppression of the hormone concentration to castration level (hormone concentration): 10 mg daily

Compound: CCNC(=O)[C@@H]1CCCN1C(=O)[C@H](CCCNC(=N)N)NC(=O)[C@H](CC(C)C)NC(=O)[C@@H](CC(C)C)NC(=O)[C@H](Cc1ccc(O)cc1)NC(=O)[C@H](CO)NC(=O)[C@H](Cc1c[nH]c2ccccc12)NC(=O)[C@H](Cc1c[nH]cn1)NC(=O)[C@@H]1CCC(=O)N1 [leuprorelin, reference compound]
- testosterone levels during first period (testosterone levels; [1]): quickly reach castration level
- testosterone levels during first period (testosterone levels; [2]): quickly reach castration level
- PSA levels decrease during first period (PSA levels; [1]): up to 95%
- PSA levels decrease during first period (PSA levels; [2]): up to 95%

Compound: ozarelix
- testosterone levels during first period (testosterone levels; [3]): quickly reach castration level
- testosterone levels during second period (testosterone levels; [4]): above 0.5 ng/mL
- testosterone levels during first period (testosterone levels; [5]): quickly reach castration level
- testosterone levels during second period (testosterone levels; [6]): above 0.5 ng/mL
- testosterone levels during second period (testosterone levels; [7]): above 0.5 ng/mL
- testosterone levels during second period (testosterone levels; [8]): above 0.5 ng/mL
- PSA levels decrease during first period (PSA levels; [3]): up to 95%
- PSA levels during second period (PSA levels; [4]): remain stably low
- PSA levels decrease during first period (PSA levels; [5]): up to 95%
- PSA levels during second period (PSA levels; [6]): remain stably low
- PSA levels during second period (PSA levels; [7]): remain stably low
- PSA levels during second period (PSA levels; [8]): remain stably low

Reference: patent US20150080305A1, “APPLICATION OF INITIAL DOSES OF LHRH ANALOGUES AND MAINTENANCE DOSES OF LHRH ANTAGONISTS FOR THE TREATMENT OF HORMONE-DEPENDENT CANCERS AND CORRESPONDING PHARMACEUTICAL KITS” (AETERNA ZENTARIS GmbH, priority 2006, published 2015)
